{"source": "patent US7598258B2", "about": "“Quinoline derivatives and quinazoline derivatives inhibiting autophosphorylation of macrophage colony stimulating factor receptor” (Kirin Beer Kabushiki Kaisha, priority 2002, dated 2009)", "target": "T1, Human KDR (Homo sapiens, UniProt P35968)", "T1 construct": "expressed in transfected cells; host or cells: NIH3T3 cells (mouse fibroblasts)", "T1 sequence (P35968 20-1356)": "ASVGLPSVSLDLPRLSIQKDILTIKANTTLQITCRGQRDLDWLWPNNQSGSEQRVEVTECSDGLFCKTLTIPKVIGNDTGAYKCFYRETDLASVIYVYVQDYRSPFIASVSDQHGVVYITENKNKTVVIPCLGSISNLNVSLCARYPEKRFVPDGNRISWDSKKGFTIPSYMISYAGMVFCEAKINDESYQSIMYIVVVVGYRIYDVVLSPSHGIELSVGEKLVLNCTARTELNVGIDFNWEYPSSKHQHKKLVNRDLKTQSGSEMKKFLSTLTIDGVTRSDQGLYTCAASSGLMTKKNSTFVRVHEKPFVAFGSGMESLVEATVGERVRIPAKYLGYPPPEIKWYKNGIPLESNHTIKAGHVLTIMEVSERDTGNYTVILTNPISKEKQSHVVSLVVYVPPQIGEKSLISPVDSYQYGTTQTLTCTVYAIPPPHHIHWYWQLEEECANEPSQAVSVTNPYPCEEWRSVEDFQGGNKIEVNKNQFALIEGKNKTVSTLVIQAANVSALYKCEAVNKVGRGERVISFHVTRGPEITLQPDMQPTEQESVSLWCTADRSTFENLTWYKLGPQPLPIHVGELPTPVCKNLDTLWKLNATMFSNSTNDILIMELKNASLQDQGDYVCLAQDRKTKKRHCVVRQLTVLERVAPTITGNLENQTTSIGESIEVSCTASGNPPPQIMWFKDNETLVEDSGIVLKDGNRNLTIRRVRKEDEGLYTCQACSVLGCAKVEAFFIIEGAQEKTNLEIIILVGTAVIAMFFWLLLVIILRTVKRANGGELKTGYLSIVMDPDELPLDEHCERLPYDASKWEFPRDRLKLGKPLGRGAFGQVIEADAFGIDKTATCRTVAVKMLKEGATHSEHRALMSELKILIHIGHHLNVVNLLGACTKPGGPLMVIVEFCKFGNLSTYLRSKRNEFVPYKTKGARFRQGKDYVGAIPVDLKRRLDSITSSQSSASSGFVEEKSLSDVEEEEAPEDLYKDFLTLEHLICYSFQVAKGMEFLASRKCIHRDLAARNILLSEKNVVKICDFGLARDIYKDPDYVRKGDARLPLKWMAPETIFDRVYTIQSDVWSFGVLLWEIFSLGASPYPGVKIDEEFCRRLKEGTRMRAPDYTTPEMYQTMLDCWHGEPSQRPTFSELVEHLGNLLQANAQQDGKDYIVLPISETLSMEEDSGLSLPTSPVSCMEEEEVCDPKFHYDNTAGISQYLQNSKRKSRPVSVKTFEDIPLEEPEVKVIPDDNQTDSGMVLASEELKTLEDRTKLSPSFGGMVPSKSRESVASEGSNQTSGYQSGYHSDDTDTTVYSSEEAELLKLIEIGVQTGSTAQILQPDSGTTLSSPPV", "experiment": "Inhibition of KDR phosphorylation in human KDR-transfected NIH3T3 cells (ELISA);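 on Selection ratio (KDR phosphorylation IC50 / c-fms phosphorylation IC50): class 2 means ratio of 10 or more and class 3 means 50 or more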", "format": "cell-based", "conditions": "for Selection ratio (KDR phosphorylation IC50 / c-fms phosphorylation IC50): class 0-3; for IC50: human KDR-transfected NIH3T3 cells, VEGF 100 ng/ml, ELISA, read-out: KDR phosphorylation 50% inhibitory concentration (IC50)", "how_it_was_run": "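NIH3T3 cells transfected with human KDR, in 0.1% FCS medium, treated with compound 1 hr at 37° C, then stimulated with VEGF 100 ng/ml for 2 min. Lysate KDR phosphorylation measured by anti-phosphotyrosine capture/anti-KDR ELISA (A450); IC50 from inhibition normalized between VEGF-stimulated and unstimulated wells.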"}
{"smiles": "COc1cc2nccc(Oc3ccc(NC(=O)N[C@@H](C)c4ccc(F)cc4)cc3)c2cc1OC", "note": "[Example 2, N-{4-[(6,7-Dimethoxy-4-quinolyl)oxy]phenyl}-N′-[(1S)-1-(4-fluorophenyl)ethyl]urea]", "values": [{"measurement": "Selection ratio (KDR phosphorylation IC50 / c-fms phosphorylation IC50)", "result": "2 (when the value was 10 or more)"}, {"measurement": "IC50", "result": 32.3, "unit": "nM"}]}
{"smiles": "COc1cc2nccc(Oc3ccc(NC(=O)N[C@H](C)c4ccc(F)cc4)cc3)c2cc1OC", "note": "[Example 3, N-{4-[(6,7-Dimethoxy-4-quinolyl)oxy]phenyl}-N′-[(1R)-1-(4-fluorophenyl)ethyl]urea]", "values": [{"measurement": "Selection ratio (KDR phosphorylation IC50 / c-fms phosphorylation IC50)", "result": "0 (KDR phosphorylation 50% inhibitory concentration [μM]/c-fms phosphorylation 50% inhibitory concentration [μM] was less than 5)"}, {"measurement": "IC50", "result": "< 1", "unit": "nM"}]}
{"smiles": "COc1cc2nccc(Oc3ccc(NC(=O)N[C@@H](C)c4ccc([N+](=O)[O-])cc4)cc3)c2cc1OC", "note": "[Example 35, N-{4-[(6,7-Dimethoxy-4-quinolyl)oxy]phenyl}-N′-[(1S)-1-(4-nitrophenyl)ethyl]urea]", "values": [{"measurement": "Selection ratio (KDR phosphorylation IC50 / c-fms phosphorylation IC50)", "result": "2 (when the value was 10 or more)"}, {"measurement": "IC50", "result": 310, "unit": "nM"}]}
{"smiles": "COc1cc2nccc(Oc3ccc(NC(=O)N[C@H](C)c4ccc([N+](=O)[O-])cc4)cc3)c2cc1OC", "note": "[Example 36, N-{4-[(6,7-Dimethoxy-4-quinolyl)oxy]phenyl}-N′-[(1R)-1-(4-nitrophenyl)ethyl]urea]", "values": [{"measurement": "Selection ratio (KDR phosphorylation IC50 / c-fms phosphorylation IC50)", "result": "0 (KDR phosphorylation 50% inhibitory concentration [μM]/c-fms phosphorylation 50% inhibitory concentration [μM] was less than 5)"}, {"measurement": "IC50", "result": 134, "unit": "nM"}]}
{"smiles": "COc1cc2nccc(Oc3ccc(NC(=O)N[C@@H](C)c4ccc(C)cc4)cc3)c2cc1OC", "note": "[Example 41, N-{4-[(6,7-Dimethoxy-4-quinolyl)oxy]phenyl}-N′-[(1S)-1-(4-methylphenyl)ethyl]urea]", "values": [{"measurement": "Selection ratio (KDR phosphorylation IC50 / c-fms phosphorylation IC50)", "result": "1 (when the value was 5 or more)"}, {"measurement": "IC50", "result": 18.8, "unit": "nM"}]}
{"smiles": "COc1cc2nccc(Oc3ccc(NC(=O)N[C@H](C)c4ccc(C)cc4)cc3)c2cc1OC", "note": "[Example 42, N-{4-[(6,7-Dimethoxy-4-quinolyl)oxy]phenyl}-N′-[(1R)-1-(4-methylphenyl)ethyl]urea]", "values": [{"measurement": "Selection ratio (KDR phosphorylation IC50 / c-fms phosphorylation IC50)", "result": "0 (KDR phosphorylation 50% inhibitory concentration [μM]/c-fms phosphorylation 50% inhibitory concentration [μM] was less than 5)"}, {"measurement": "IC50", "result": 16.6, "unit": "nM"}]}
{"smiles": "COc1cc2nccc(Oc3ccc(NC(=O)N[C@H](C)c4cccc(Br)c4)cc3)c2cc1OC", "note": "[Example 45, N-[(1R)-1-(3-Bromophenyl)ethyl]-N′-{4-[(6,7-dimethoxy-4-quinolyl)oxy]phenyl}urea]", "values": [{"measurement": "Selection ratio (KDR phosphorylation IC50 / c-fms phosphorylation IC50)", "result": "0 (KDR phosphorylation 50% inhibitory concentration [μM]/c-fms phosphorylation 50% inhibitory concentration [μM] was less than 5)"}, {"measurement": "IC50", "result": 2.5, "unit": "nM"}]}
{"smiles": "COc1cc2nccc(Oc3ccc(NC(=O)N[C@@H](C)c4cccc(Br)c4)cc3)c2cc1OC", "note": "[Example 46, N-[(1S)-1-(3-Bromophenyl)ethyl]-N′-{4-[(6,7-dimethoxy-4-quinolyl)oxy]phenyl}urea]", "values": [{"measurement": "Selection ratio (KDR phosphorylation IC50 / c-fms phosphorylation IC50)", "result": "3 (when the value was 50 or more)"}, {"measurement": "IC50", "result": 507, "unit": "nM"}]}
{"smiles": "COc1cc2nccc(Oc3ccc(NC(=O)N[C@@H](C)c4ccc(Cl)cc4)cc3)c2cc1OC", "note": "[Example 47, N-[(1S)-1-(4-Chlorophenyl)ethyl]-N′-{4-[(6,7-dimethoxy-4-quinolyl)oxy]phenyl}urea]", "values": [{"measurement": "Selection ratio (KDR phosphorylation IC50 / c-fms phosphorylation IC50)", "result": "3 (when the value was 50 or more)"}, {"measurement": "IC50", "result": 310, "unit": "nM"}]}
{"smiles": "COc1cc2nccc(Oc3ccc(NC(=O)N[C@H](C)c4ccc(Cl)cc4)cc3)c2cc1OC", "note": "[Example 48, N-[(1R)-1-(4-Chlorophenyl)ethyl]-N′-{4-[(6,7-dimethoxy-4-quinolyl)oxy]phenyl}urea]", "values": [{"measurement": "Selection ratio (KDR phosphorylation IC50 / c-fms phosphorylation IC50)", "result": "0 (KDR phosphorylation 50% inhibitory concentration [μM]/c-fms phosphorylation 50% inhibitory concentration [μM] was less than 5)"}, {"measurement": "IC50", "result": 2.7, "unit": "nM"}]}
{"smiles": "COc1cccc([C@H](C)NC(=O)Nc2ccc(Oc3ccnc4cc(OC)c(OC)cc34)cc2)c1", "note": "[Example 49, N-{4-[(6,7-Dimethoxy-4-quinolyl)oxy]phenyl}-N′-[(1S)-1-(3-methoxyphenyl)ethyl]urea]", "values": [{"measurement": "Selection ratio (KDR phosphorylation IC50 / c-fms phosphorylation IC50)", "result": "2 (when the value was 10 or more)"}, {"measurement": "IC50", "result": 45.4, "unit": "nM"}]}
{"smiles": "COc1cccc([C@@H](C)NC(=O)Nc2ccc(Oc3ccnc4cc(OC)c(OC)cc34)cc2)c1", "note": "[Example 50, N-{4-[(6,7-Dimethoxy-4-quinolyl)oxy]phenyl}-N′-[(1R)-1-(3-methoxyphenyl)ethyl]urea]", "values": [{"measurement": "Selection ratio (KDR phosphorylation IC50 / c-fms phosphorylation IC50)", "result": "0 (KDR phosphorylation 50% inhibitory concentration [μM]/c-fms phosphorylation 50% inhibitory concentration [μM] was less than 5)"}, {"measurement": "IC50", "result": 28.3, "unit": "nM"}]}
